Patent US20130045962A1, “PEPTIDE DEFORMYLASE INHIBITORS” (priority 2007, published 2013)
In brackets after ≈: the same amount, converted by molar mass. Several values for one entry are separate records, joined by “and”; a condition that tells them apart may be missing. Identical values can stand only once. Like-named read-outs stand apart in the source and are kept apart here.

What was measured:
Experiment in all cases: Antimicrobial activity assay (broth microdilution MIC)
Assay type in all cases: cell-based
[1] = tested on: Haemophilus influenzae Q1; conditions: for MIC: Haemophilus influenzae, read-out: MIC H. influenzae Q1; for MIC H. influenzae Q1: individual results
Procedure: (§1) Whole-cell antimicrobial activity was determined by broth microdilution using the Clinical and Laboratory Standards Institute (CLSI, formerly NCCLS) recommended methodology (NCCLS Document M7-A6, “Methods for Dilution Susceptibility Tests for Bacteria that Grow Aerobically Approved Standard Sixth Edition”, 2003). Compounds were tested in serial two-fold dilutions ranging from 64 to 0.06 μg/mL. A panel of 12 strains was evaluated in the assay. This panel consisted of the following laboratory strains: Staphylococcus aureus Oxford, Staphylococcus aureus WCUH29, Enterococcus faecalis I, Enterococcus faecalis 7, Haemophilus influenzae Q1, Haemophilus influenzae NEMC1, Moraxella catarrhalis 1502, Streptococcus pneumoniae 1629, Streptococcus pneumoniae N1387, Streptococcus pneumoniae Ery2, Escherichia coli 7623 (AcrABEFD+) and Escherichia coli 120 (AcrAB−). The minimum inhibitory concentration (MIC) was determined as the lowest concentration of compound that inhibited visible growth. A mirror reader was used to assist in determining the MIC endpoint.

Enterococcus faecalis I = conditions: median of all results obtained, read-out: MIC E. faecalis I
Procedure: as §1

Enterococcus faecalis 7 = conditions: median of all results obtained, read-out: MIC E. faecalis 7
Procedure: as §1

[2] = tested on: Haemophilus influenzae NEMC1; conditions: for MIC: Haemophilus influenzae, read-out: MIC H. influenzae NEMC1
Procedure: as §1

[3] = tested on: Staphylococcus aureus Oxford; conditions: median of all results obtained, read-out: MIC S. aureus Oxford
Procedure: as §1

[4] = tested on: Streptococcus pneumoniae N1387; conditions: median of all results obtained, read-out: MIC S. pneumoniae N1387
Procedure: as §1

[5] = tested on: Escherichia coli 120 (AcrAB−); conditions: for MIC: Escherichia coli; for MIC E. coli 120 AcrAB—: individual results, panel run 2 times
Procedure: as §1

[6] = tested on: Escherichia coli 7623 (AcrABEFD+); conditions: for MIC: Escherichia coli, read-out: MIC E. coli 7623 AcrABEFD+
Procedure: as §1

[7] = tested on: Streptococcus pneumoniae 1629; conditions: median of all results obtained, read-out: MIC S. pneumoniae 1629
Procedure: as §1

[8] = Q1, median of all results obtained
[9] = NEMC1, median of all results obtained
[10] = read-out: MIC E. coli 120 AcrAB—, median of all results obtained
[11] = Q1, individual results, panel run 2 times
[12] = NEMC1, individual results, panel run 2 times
[13] = individual results, panel run 2 times

Structure (SMILES)	MIC [1, 8] [µg/mL]	MIC [2, 9] [µg/mL]	MIC [5, 10] [µg/mL]	MIC ([6]; median of all results obtained) [µg/mL]	MIC [1, 11] [µg/mL]	MIC [2, 12] [µg/mL]	MIC E. coli 120 AcrAB— [5]	MIC H. influenzae Q1 ([1]; panel run 2 times) [µg/mL]	MIC E. coli 7623 AcrABEFD+ [6, 13]	further results
Cc1nc(NNC(=O)[C@H](CC2CCCC2)CN(O)C=O)c(F)c(N2CCN3CCOC[C@@H]3C2)n1 [Example 24, [(2R)-2-(Cyclopentylmethyl)-3-(2-{5-fluoro-6-[(9aS)-hexahydropyrazino[2,1-c][1,4]oxazin-8(1H)-yl]-2-methyl-4-pyrimidinyl}hydrazino)-3-oxopropyl]hydroxyformamide]	0.5 (≈ 1.04 µM)	1 (≈ 2.09 µM)	0.188 (≈ 0.391 µM)	16 (≈ 33.4 µM)						MIC (Enterococcus faecalis I): 48 µg/mL (≈ 100 µM); MIC (Enterococcus faecalis 7): 32 µg/mL (≈ 66.7 µM); MIC [3]: 2 µg/mL (≈ 4.17 µM); MIC [4]: 0.5 µg/mL (≈ 1.04 µM); MIC [7]: 0.75 µg/mL (≈ 1.56 µM)
C[C@@H]1CN(C)CCN1c1nc(Cl)nc(NNC(=O)[C@H](CC2CCCC2)CN(O)C=O)c1F [Example 63, [(2R)-3-(2-{2-Chloro-6-[(2R)-2,4-dimethyl-1-piperazinyl]-5-fluoro-4-pyrimidinyl}hydrazino)-2-(cyclopentylmethyl)-3-oxopropyl]hydroxyformamide]	0.25 (≈ 0.53 µM)	0.5 (≈ 1.06 µM)	0.25 (≈ 0.53 µM)	4 (≈ 8.48 µM)						
Cc1nc(NNC(=O)[C@H](CC2CCCC2)CN(O)C=O)c(F)c(N2CCN(C)C[C@H]2C)n1 [Example 109, [(2R)-2-(Cyclopentylmethyl)-3-(2-{6-[(2R)-2,4-dimethyl-1-piperazinyl]-5-fluoro-2-methyl-4-pyrimidinyl}hydrazino)-3-oxopropyl]hydroxyformamide]					0.5 (≈ 1.11 µM)	1 (≈ 2.21 µM)	≦0.06, μg/mL and 0.125 μg/mL			MIC [6, 13]: 8 µg/mL (≈ 17.7 µM)
CN1CCN(c2nc(Cl)nc(NNC(=O)[C@H](CC3CCCC3)CN(O)C=O)c2F)CC12CC2 [Example 172, [(2R)-3-{2-[2-Chloro-5-fluoro-6-(4-methyl-4,7-diazaspiro[2.5]oct-7-yl)-4-pyrimidinyl]hydrazino}-2-(cyclopentylmethyl)-3-oxopropyl]hydroxyformamide]					1 (≈ 2.07 µM)	1 (≈ 2.07 µM)		2 (≈ 4.13 µM)	4 µg/mL and 16 µg/mL	MIC H. influenzae NEMC1 [2, 13]: 2 µg/mL (≈ 4.13 µM); MIC ([5]; read-out: MIC E. coli 120 AcrAB—, individual results, panel run 2 times): 0.125 to 0.5 µg/mL (≈ 0.258 to 1.03 µM)
Cc1nc(NNC(=O)[C@H](CC2CCCC2)CN(O)C=O)c(F)c(N2CCN(C)C3(CC3)C2)n1 [Example 275, ((2R)-2-(Cyclopentylmethyl)-3-{2-[5-fluoro-2-methyl-6-(4-methyl-4,7-diazaspiro[2.5]oct-7-yl)-4-pyrimidinyl]hydrazino}-3-oxopropyl)hydroxyformamide]					0.5 (≈ 1.08 µM)	1 (≈ 2.16 µM)	≦0.06, μg/mL and 0.5 μg/mL	1 (≈ 2.16 µM)	4 µg/mL and 16 µg/mL	
